# Tests used:
# [1] = Fluorescence of modified Rhodamine dyes (spectrometry and spectrofluorometry); format: physicochemical
# Procedure: Modified Rhodamine dyes were evaluated using both conventional spectrometry and spectrofluorometry. For both types of analysis the dyes were dissolved in either methanol or 50 mM Tris at final dye concentrations ranging from 10 nM to 100 μM. An absorbance spectrum from wavelengths of 200 nm to 700 nm was determined for each dye using a Beckman DU-7000 spectrophotometer. The dyes all had absorbance peaks at around 470 to 480 nm. This wavelength was chosen as the fluorescence excitation wavelength and a full fluorescence emission spectrum was determined using a Hitachi F-2000 spectrofluorometer. For each dye, the emission peak was around 520 nm and the fluorescent output was measured under the conditions tested (see Table 1).
# [2] = molecular target: T1, recombinant CPP32 (Homo sapiens, UniProt P42574); experiment: Fluorometric enzyme assay, cleavage of substrate by recombinant CPP32; format: biochemical; details: summary of Table 4
# T1 construct: made in house; host or cells: Sf9 insect cells, baculovirus vector
# T1 sequence (P42574 29-175 limits assumed): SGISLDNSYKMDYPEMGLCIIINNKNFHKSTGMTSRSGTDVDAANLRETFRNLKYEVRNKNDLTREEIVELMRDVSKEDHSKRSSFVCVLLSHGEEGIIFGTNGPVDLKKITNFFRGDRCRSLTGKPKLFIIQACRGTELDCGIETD
# T1 sequence (P42574 176-277 limits assumed): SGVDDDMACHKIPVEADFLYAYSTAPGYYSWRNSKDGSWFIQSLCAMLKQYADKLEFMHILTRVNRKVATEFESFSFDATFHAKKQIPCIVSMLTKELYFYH
# Procedure: (§1) The activities of N-(Z-VD)-N′-acetyl-Rhodamine 110, N-(Z-VAD)-N′-acetyl-Rhodamine 110, N-(Z-DEVD)-N′-acetyl-Rhodamine 110 SEQ ID NO:5, N-(Z-YVAD)-N-acetyl-Rhodamine 110 SEQ ID NO:2, (Z-VAD)2-Rhodamine 110 and (Z-YVAD)2-Rhodamine 110 SEQ ID NO:2 as synthetic substrates for recombinant CPP32 and ICE were measured in a fluorometric enzyme assay. […] See, Webb, N. R. et al., “Expression of proteins using recombinant Baculovirus,” Techniques 2:173-188 (1990). Cleavage of the synthetic substrates by the enzyme results in a fluorescent signal which is read in a spectrofluorometer or in a fluorometric microtiter plate reader. Using this assay, the Km and Vmax values were determined for each substrate with either CPP32 or ICE.
# (§2) CPP32 and ICE dependent substrate cleavage was measured using the following buffer conditions: 100 mM HEPES pH 7.5, with 10% sucrose, 1% CHAPS, 5 mM glutathione, and 1-100 μM test substrate. Nonspecific enzyme cleavage was determined with the use of the specific CPP32 and ICE inhibitors consisted of an oligomer with the sequence Asp-Glu-Val-Asp or Tyr-Val-Ala-Asp, respectively, with an aldehyde group conjugated to the C-terminus. The assay for enzyme activity was typically carried out at 37° C. for 60 minutes.
# [3] = molecular target: T2, recombinant ICE (Homo sapiens, UniProt P29466); experiment: Fluorometric enzyme assay, cleavage of substrate by recombinant ICE; format: biochemical; details: for ICE Vmax / Km: 1-100 μM substrate, 37° C.; for Km: NA = no activity observed at 1-100 μM substrate, 3 h incubation; for efficiency as substrate for ICE: summary of Table 4
# T2 construct: made in house; host or cells: Sf9 insect cells, baculovirus vector
# T2 sequence (P29466 120-297 limits assumed): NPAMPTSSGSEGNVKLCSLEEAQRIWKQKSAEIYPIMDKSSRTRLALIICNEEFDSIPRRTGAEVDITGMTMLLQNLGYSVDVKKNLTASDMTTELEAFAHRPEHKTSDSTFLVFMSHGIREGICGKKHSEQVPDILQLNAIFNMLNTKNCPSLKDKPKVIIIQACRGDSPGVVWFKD
# T2 sequence (P29466 317-404 limits assumed): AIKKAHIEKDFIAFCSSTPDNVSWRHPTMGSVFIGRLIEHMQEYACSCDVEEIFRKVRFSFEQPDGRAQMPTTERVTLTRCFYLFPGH
# Procedure: as §1, §2
# [4] = test system: HL-60 cells; experiment: Uptake and retention of modified Rhodamine dyes by HL-60 cells (epifluorescence microscopy); format: cell-based; details: 10 μM or 50 μM dye; for staining of HL-60 cells: 37° C., serum-free Iscove's medium; for leakage of the dye into the medium / retention in cells: after washing
# Procedure: HL-60 cells were placed in 5 ml of Iscove's medium (without serum or phenol-red) containing 10 μM or 50 μM N-octyloxycarbonyl-Rhodamine 110, N-decyloxycarbonyl-Rhodamine-110, N-dodecyloxycarbonyl-Rhodamine-110, N-hexyloxycarbonyl-Rhodamine-110, N-(ethylthio)carbonyl-Rhodamine 110 or Rhodamine 110. The cells were incubated for varying times at 37° C. in a CO2 incubator, recovered by centrifugation, and washed in 50 mL of ice-cold medium. The cells were re-centrifuged and the final pellet was resuspended in 50 μL of fresh medium. Aliquots of each cell suspension were placed in microslides and viewed on a Nikon inverted microscope with epifluorescent illumination.
compound,measurement,setting,value
CCCCCCSC(=O)Nc1ccc2c(c1)Oc1cc(N)ccc1C21OC(=O)c2ccccc21 (centres unmarked) [N-(Hexylthio)carbonyl-Rhodamine 110],Peak Emission Wavelength,"[1]; Test Conc. 1 μM, MeOH",530 nm
same,Peak Excitation Wavelength,"[1]; Test Conc. 1 μM, MeOH",490 nm
same,Signal Amplitude,"[1]; Test Conc. 1 μM, MeOH",650
"CC(C)[C@H](NC(=O)[C@H](Cc1ccc(O)cc1)NC(=O)OCc1ccccc1)C(=O)N[C@@H](C)C(=O)N[C@@H](CC(=O)O)C(=O)Nc1ccc2c(c1)Oc1cc(NC(=O)[C@H](CC(=O)O)NC(=O)[C@H](C)NC(=O)[C@@H](NC(=O)[C@H](Cc3ccc(O)cc3)NC(=O)OCc3ccccc3)C(C)C)ccc1C21OC(=O)c2ccccc21 [(Z-YVAD)2-Rhodamine 110, (Z-Tyr-Val-Ala-Asp)2-Rhodamine 110]",efficiency as substrate for CPP32,[2],not for CPP32
same,ICE Vmax,[3],14 nmol/min
same,Km,[3],6 µM
same,efficiency as substrate for ICE,[3],efficient substrates
"CC(=O)Nc1ccc2c(c1)Oc1cc(NC(=O)C(CC(=O)O)NC(=O)C(C)NC(=O)C(NC(=O)OCc3ccccc3)C(C)C)ccc1C21OC(=O)c2ccccc21 (stereo not drawn) [N-(Z-VAD)-N′-Ac-Rhodamine 110, N-(Z-Val-Ala-Asp)-N′-acetyl-Rhodamine 110]",efficiency as substrate for CPP32,[2],not for CPP32
same,ICE Vmax,[3],4 nmol/min
same,Km,[3],70 µM
same,efficiency as substrate for ICE,[3],efficient substrates
CCOC(=O)Nc1ccc2c(c1)Oc1cc(N)ccc1C21OC(=O)c2ccccc21 (centres unmarked) [N-Ethoxycarbonyl-Rhodamine 110],Peak Emission Wavelength,"[1]; Test Conc. 1 μM, Tris",520 nm
same,Peak Excitation Wavelength,"[1]; Test Conc. 1 μM, Tris",485 nm
same,Signal Amplitude,"[1]; Test Conc. 1 μM, Tris",3070
"CN(C)C(=O)Nc1ccc2c(c1)Oc1cc(N)ccc1C21OC(=O)c2ccccc21 (centres unmarked) [N-Dimethylcarbamyl-Rhodamine-110, N-Dimethylcarbamyl-Rhodamine 110]",Peak Emission Wavelength,"[1]; Test Conc. 0.1 μM, Tris",520 nm
same,Peak Excitation Wavelength,"[1]; Test Conc. 0.1 μM, Tris",490 nm
same,Signal Amplitude,"[1]; Test Conc. 0.1 μM, Tris",446
COC(=O)Nc1ccc2c(c1)Oc1cc(N)ccc1C21OC(=O)c2ccccc21 (centres unmarked) [N-Methoxycarbonyl-Rhodamine 110],Peak Emission Wavelength,"[1]; Test Conc. 0.1 μM, Tris",520 nm
same,Peak Excitation Wavelength,"[1]; Test Conc. 0.1 μM, Tris",470 nm
same,Signal Amplitude,"[1]; Test Conc. 0.1 μM, Tris",254
"CCCCCCCCSC(=O)Nc1ccc2c(c1)Oc1cc(N)ccc1C21OC(=O)c2ccccc21 (centres unmarked) [N-(Octylthio)carbonyl-Rhodamine 110, N-(Octylthio)carbonyl Rhodamine 110]",Peak Emission Wavelength,"[1]; Test Conc. 1 μM, MeOH",520 nm
same,Peak Excitation Wavelength,"[1]; Test Conc. 1 μM, MeOH",470 nm
same,Signal Amplitude,"[1]; Test Conc. 1 μM, MeOH",471
"Cl.N=c1ccc2c(-c3ccccc3C(=O)O)c3ccc(N)cc3oc-2c1 [Rhodamine 110, reference compound]",staining of HL-60 cells,[4],low intensity of cellular staining
same,leakage of the dye into the medium / retention in cells,[4],quickly leaked out of the cells
same,Peak Emission Wavelength,"[1]; Test Conc. 0.01 μM, Tris",520 nm
same,Peak Excitation Wavelength,"[1]; Test Conc. 0.01 μM, Tris",490 nm
same,Signal Amplitude,"[1]; Test Conc. 0.01 μM, Tris",284
"COCCOCCOCCOC(=O)Nc1ccc2c(c1)Oc1cc(N)ccc1C21OC(=O)c2ccccc21 (centres unmarked) [N-(2,5,8-Trioxadecyloxycarbonyl)-Rhodamine 110]",Peak Emission Wavelength,"[1]; Test Conc. 1 μM, Tris",520 nm
same,Peak Excitation Wavelength,"[1]; Test Conc. 1 μM, Tris",485 nm
same,Signal Amplitude,"[1]; Test Conc. 1 μM, Tris",2841
"CS(=O)(=O)Nc1ccc2c(c1)Oc1cc(N)ccc1C21OC(=O)c2ccccc21 (centres unmarked) [N-Methylsulfonyl-Rhodamine-110, N-Methylsulfonyl-Rhodamine 110]",Peak Emission Wavelength,"[1]; Test Conc. 1 μM, Tris",520 nm
same,Peak Excitation Wavelength,"[1]; Test Conc. 1 μM, Tris",485 nm
same,Signal Amplitude,"[1]; Test Conc. 1 μM, Tris",988
N-Acetyl-Rhodamine 116,Peak Emission Wavelength,"[1]; Test Conc. 1 μM, Tris",530 nm
same,Peak Excitation Wavelength,"[1]; Test Conc. 1 μM, Tris",470 nm
same,Signal Amplitude,"[1]; Test Conc. 1 μM, Tris",644
CCSC(=O)Nc1ccc2c(c1)Oc1cc(N)ccc1C21OC(=O)c2ccccc21 (centres unmarked) [N-(Ethylthio)carbonyl-Rhodamine 110],staining of HL-60 cells,[4],"moderate, but still easily detectable staining"
same,leakage of the dye into the medium / retention in cells,[4],slight leakage
same,Peak Emission Wavelength,"[1]; Test Conc. 1 μM, Tris",520 nm
same,Peak Excitation Wavelength,"[1]; Test Conc. 1 μM, Tris",490 nm
same,Signal Amplitude,"[1]; Test Conc. 1 μM, Tris",2430
"CCCCOCCOC(=O)Nc1ccc2c(c1)Oc1cc(N)ccc1C21OC(=O)c2ccccc21 (centres unmarked) [N-(2-Butoxyethoxy)carbonyl-Rhodamine 110, N-(2-Butoxyethoxycarbonyl)-Rhodamine 110]",Peak Emission Wavelength,"[1]; Test Conc. 1 μM, Tris",520 nm
same,Peak Excitation Wavelength,"[1]; Test Conc. 1 μM, Tris",470 nm
same,Signal Amplitude,"[1]; Test Conc. 1 μM, Tris",2047
CCCCCCCCOC(=O)Nc1ccc2c(c1)Oc1cc(N)ccc1C21OC(=O)c2ccccc21 (centres unmarked) [N-Octyloxycarbonyl-Rhodamine 110],staining of HL-60 cells,[4],stained HL-60 cells intensely
same,leakage of the dye into the medium / retention in cells,[4],almost no leakage of the dye into the medium
same,Peak Emission Wavelength,"[1]; Test Conc. 1 μM, MeOH",520 nm
same,Peak Excitation Wavelength,"[1]; Test Conc. 1 μM, MeOH",470 nm
same,Signal Amplitude,"[1]; Test Conc. 1 μM, MeOH",850
"CCCCCCCCCCOC(=O)Nc1ccc2c(c1)Oc1cc(N)ccc1C21OC(=O)c2ccccc21 (centres unmarked) [N-Decyloxycarbonyl-Rhodamine 110, N-Decyloxycarbonyl-Rhodamine-110]",staining of HL-60 cells,[4],stained HL-60 cells intensely
same,leakage of the dye into the medium / retention in cells,[4],almost no leakage of the dye into the medium
same,Peak Emission Wavelength,"[1]; Test Conc. 1 μM, MeOH",520 nm
same,Peak Excitation Wavelength,"[1]; Test Conc. 1 μM, MeOH",475 nm
same,Signal Amplitude,"[1]; Test Conc. 1 μM, MeOH",827
"CCCCCCCCCCCCOC(=O)Nc1ccc2c(c1)Oc1cc(N)ccc1C21OC(=O)c2ccccc21 (centres unmarked) [N-Dodecyloxycarbonyl-Rhodamine 110, N-Dodecyloxycarbonyl-Rhodamine-110]",staining of HL-60 cells,[4],stained HL-60 cells intensely
same,leakage of the dye into the medium / retention in cells,[4],almost no leakage of the dye into the medium
same,Peak Emission Wavelength,"[1]; Test Conc. 1 μM, MeOH",520 nm
same,Peak Excitation Wavelength,"[1]; Test Conc. 1 μM, MeOH",480 nm
same,Signal Amplitude,"[1]; Test Conc. 1 μM, MeOH",640
"CCCCCCOC(=O)Nc1ccc2c(c1)Oc1cc(N)ccc1C21OC(=O)c2ccccc21 (centres unmarked) [N-Hexyloxycarbonyl-Rhodamine 110, N-Hexyloxycarbonyl-Rhodamine-110]",staining of HL-60 cells,[4],stained HL-60 cells less intensely
same,leakage of the dye into the medium / retention in cells,[4],still well-retained
same,Peak Emission Wavelength,"[1]; Test Conc. 0.1 μM, MeOH",520 nm
same,Peak Excitation Wavelength,"[1]; Test Conc. 0.1 μM, MeOH",465 nm
same,Signal Amplitude,"[1]; Test Conc. 0.1 μM, MeOH",109
CCCCCCN(C)C(=O)Nc1ccc2c(c1)Oc1cc(N)ccc1C21OC(=O)c2ccccc21 (centres unmarked) [N-(N-Hexyl-N-methylcarbamyl)-Rhodamine 110],Peak Emission Wavelength,"[1]; Test Conc. 1 μM, Tris",520 nm
same,Peak Excitation Wavelength,"[1]; Test Conc. 1 μM, Tris",470 nm
same,Signal Amplitude,"[1]; Test Conc. 1 μM, Tris",1466
